{"source": "ChEMBL document CHEMBL2311419", "about": "“Discovery of coumarin-dihydropyridine hybrids as bone anabolic agents” (J Med Chem, 2013)", "key": {"[1]": {"system": "Calvarial osteoblast", "test": "Induction of proliferation of mouse calvarial osteoblasts at 1 pM to 1 uM after 48 hrs", "type": "functional, cell-based"}, "[2]": {"system": "Calvarial osteoblast", "test": "Induction of mineralization in mouse calvarial osteoblasts assessed as increase of mineralized nodules formation at 100 pM after 21 days by alizarin red-S staining based spectrophotometric analysis", "type": "functional"}, "[3]": {"system": "Mus musculus", "test": "Induction of new bone formation in ovariectomized BALB/c mouse model assessed as increase in mineral apposition rate at 5 mg/kg/day, po qd for 8 weeks by bone histomorphometry analysis (Rvb =0.11 um/day)", "type": "functional"}, "[4]": {"test": "Cytotoxicity against mouse calvarial osteoblasts assessed as cell viability at 1 pM to 1 uM after 48 hrs by MTT assay", "type": "cell-based", "conditions": "calvarial osteoblast"}, "[5]": {"system": "Mus musculus", "test": "Antiosteoporotic activity in ovariectomized BALB/c mouse model assessed as restoration of ovariectomy-induced increase in trabecular separation at 10 mg/kg/day, po qd for 8 weeks (reference value: 0.99+/-0.08mm)", "type": "functional, Trabecula"}, "[6]": {"system": "Mus musculus", "test": "Antiosteoporotic activity in ovariectomized BALB/c mouse model assessed as restoration of ovariectomy-induced reduction in trabecular number at 1 mg/kg/day, po qd for 8 weeks (reference value: 0.12+/-0.02 /mm)", "type": "functional, Trabecula"}, "[7]": {"system": "Mus musculus", "test": "Inhibition of bone turnover in ovariectomized BALB/c mouse model assessed as reduction in ovariectomy-induced serum CTx levels at 1 mg/kg/day, po qd for 8 weeks by ELISA", "type": "functional, organism-based"}, "[8]": {"system": "Mus musculus", "test": "Antiosteoporotic activity in ovariectomized BALB/c mouse model assessed as restoration of ovariectomy-induced reduction in bone volume/trabecular volume at 5 mg/kg/day, po qd for 8 weeks (reference value: 0.45+/-0.07%)", "type": "functional, Trabecula", "design": "scale not given: the % may be the effect or the level left"}, "[9]": {"system": "Mus musculus", "test": "Antiosteoporotic activity in ovariectomized BALB/c mouse model assessed as restoration of ovariectomy-induced increase in trabecular separation at 1 mg/kg/day, po qd for 8 weeks (reference value: 0.99+/-0.08mm)", "type": "functional, Trabecula"}, "[10]": {"system": "Mus musculus", "test": "Inhibition of osteoclastogenesis in ovariectomized BALB/c mouse model assessed as suppression of RANK gene expression at 1 mg/kg/day, po qd for 8 weeks by qPCR analysis", "type": "functional, organism-based"}, "[11]": {"system": "Mus musculus", "test": "Induction of osteoblast differentiation in ovariectomized BALB/c mouse model assessed as upregulation of BMP2 mRNA expression po administered qd for 8 weeks by qPCR analysis", "type": "functional, organism-based"}, "[12]": {"system": "Mus musculus", "test": "Antiosteoporotic activity in ovariectomized BALB/c mouse model assessed as restoration of ovariectomy-induced reduction in bone volume/trabecular volume at 10 mg/kg/day, po qd for 8 weeks (reference value: 0.45+/-0.07%)", "type": "functional, Trabecula", "design": "scale not given: the % may be the effect or the level left"}, "[13]": {"system": "Calvarial osteoblast", "test": "Induction of osteoblastogenesis in mouse calvarial osteoblasts assessed as increase in expression of RUNX2 gene at 100 pM to 10 nM by qPCR analysis relative to control", "type": "functional"}, "[14]": {"system": "Calvarial osteoblast", "test": "Induction of osteoblastogenesis in mouse calvarial osteoblasts assessed as increase in COL1 expression at 100 pM to 10 nM by Western blotting analysis", "type": "functional, cell-based"}, "[15]": {"system": "Mus musculus", "test": "Antiosteoporotic activity in ovariectomized BALB/c mouse model assessed as restoration of ovariectomy-induced reduction in trabecular number at 10 mg/kg/day, po qd for 8 weeks (reference value: 0.12+/-0.02 /mm)", "type": "functional, Trabecula"}, "[16]": {"system": "Mus musculus", "test": "Antiosteoporotic activity in ovariectomized BALB/c mouse model assessed as restoration of ovariectomy-induced reduction in trabecular number at 5 mg/kg/day, po qd for 8 weeks (reference value: 0.12+/-0.02 /mm)", "type": "functional, Trabecula"}, "[17]": {"system": "Mus musculus", "test": "Inhibition of osteoclastogenesis in ovariectomized BALB/c mouse model assessed as increase in OPG/RANKL ratio at 5 to 10 mg/kg/day, po qd for 8 weeks by qPCR analysis", "type": "functional, organism-based"}, "[18]": {"system": "Calvarial osteoblast", "test": "Induction of osteoblastogenesis in mouse calvarial osteoblasts assessed as increase in expression of ALP gene at 100 pM to 10 nM by qPCR analysis relative to control", "type": "functional"}, "[19]": {"system": "Mus musculus", "test": "Hepatotoxicity against BALB/c mouse assessed as morphological changes at 1 to 10 mg/kg/day, po after 2 months", "type": "toxicity, organism-based", "design": "route oral", "conditions": "in vivo"}, "[20]": {"system": "Mus musculus", "test": "Inhibition of osteoclastogenesis in ovariectomized BALB/c mouse model assessed as suppression of RANK gene expression at 5 to 10 mg/kg/day, po qd for 8 weeks by qPCR analysis", "type": "functional, organism-based"}, "[21]": {"system": "Calvarial osteoblast", "test": "Induction of osteoblastogenesis in mouse calvarial osteoblasts assessed as increase in expression of COL1 gene at 100 pM by qPCR analysis relative to control", "type": "functional, cell-based"}, "[22]": {"system": "Mus musculus", "test": "Inhibition of osteoclastogenesis in ovariectomized BALB/c mouse model assessed as suppression of TRAP gene expression at 5 to 10 mg/kg/day, po qd for 8 weeks by qPCR analysis", "type": "functional, organism-based"}, "[23]": {"system": "Mus musculus", "test": "Antiosteoporotic activity in ovariectomized BALB/c mouse model assessed as restoration of ovariectomy-induced reduction in bone volume/trabecular volume at 1 mg/kg/day, po qd for 8 weeks (reference value: 0.45+/-0.07%)", "type": "functional, Trabecula", "design": "scale not given: the % may be the effect or the level left"}, "[24]": {"system": "Mus musculus", "test": "Induction of osteoblast differentiation in ovariectomized BALB/c mouse model assessed as upregulation of RUNX2 mRNA expression po administered qd for 8 weeks by qPCR analysis", "type": "functional, organism-based"}, "[25]": {"system": "Mus musculus", "test": "Antiosteoporotic activity in ovariectomized BALB/c mouse model assessed as restoration of ovariectomy-induced increase in trabecular separation at 5 mg/kg/day, po qd for 8 weeks (reference value: 0.99+/-0.08mm)", "type": "functional, Trabecula"}, "[26]": {"system": "Mus musculus", "test": "Induction of new bone formation in ovariectomized BALB/c mouse model assessed as increase in mineral apposition rate at 10 mg/kg/day, po qd for 8 weeks by bone histomorphometry analysis (Rvb =0.11 um/day)", "type": "functional"}, "[27]": {"system": "Mus musculus", "test": "Antiosteoporotic activity in ovariectomized BALB/c mouse model assessed as restoration of ovariectomy-induced increase in structural model index at 5 mg/kg/day, po qd for 8 weeks", "type": "functional, organism-based"}, "[28]": {"system": "Mus musculus", "test": "Induction of osteoblast differentiation in ovariectomized BALB/c mouse model assessed as upregulation of COL1 mRNA expression at 1 mg/kg/day, po qd for 8 weeks by qPCR analysis", "type": "functional, organism-based"}, "[29]": {"system": "Calvarial osteoblast", "test": "Induction of osteoblastogenesis in mouse calvarial osteoblasts assessed as increase in expression of ALP gene at 100 pM by qPCR analysis relative to control", "type": "functional, cell-based"}, "[30]": {"system": "Mus musculus", "test": "Antiosteoporotic activity in ovariectomized BALB/c mouse model assessed as restoration of ovariectomy-induced deterioration of trabecular microarchitecture at 1 to 10 mg/kg/day, po qd for 8 weeks", "type": "functional, organism-based", "conditions": "Trabecula"}, "[31]": {"system": "Mus musculus", "test": "Inhibition of osteoclastogenesis in ovariectomized BALB/c mouse model assessed as suppression of TRAP gene expression at 1 mg/kg/day, po qd for 8 weeks by qPCR analysis", "type": "functional, organism-based"}, "[32]": {"system": "Mus musculus", "test": "Antiosteoporotic activity in ovariectomized BALB/c mouse model assessed as restoration of ovariectomy-induced increase in structural model index at 1 mg/kg/day, po qd for 8 weeks", "type": "functional, organism-based"}, "[33]": {"system": "Mus musculus", "test": "Induction of new bone formation in ovariectomized BALB/c mouse model assessed as increase in mineral apposition rate at 1 mg/kg/day, po qd for 8 weeks by bone histomorphometry analysis (Rvb =0.11 um/day)", "type": "functional"}}, "note": "The source made the active and inactive calls. The rule behind the calls is not given here.", "data": [{"smiles": "CCOC(=O)C1=C(C)NC2=C(C(=O)CCC2)C1c1cc(C(C)CC)c2oc(=O)c(C(=O)OC)cc2c1", "note": "(stereo not drawn)", "values": [{"measurement": "Activity", "setting": "[1]", "result": "Active"}, {"measurement": "Activity", "setting": "[2]", "result": 65, "unit": "%"}, {"measurement": "Activity", "setting": "[3]", "result": 0.294, "unit": "micrometer/day"}, {"measurement": "Activity", "setting": "[4]", "result": "Non-toxic"}, {"measurement": "Activity", "setting": "[5]", "result": 0.68, "unit": "mm"}, {"measurement": "Activity", "setting": "[6]", "result": "0.4 /millimeter"}, {"measurement": "inhibition", "setting": "[7]", "result": "Active"}, {"measurement": "Activity", "setting": "[8]", "result": 2.33, "unit": "%"}, {"measurement": "Activity", "setting": "[9]", "result": 0.66, "unit": "mm"}, {"measurement": "inhibition", "setting": "[10]", "result": "Active"}, {"measurement": "Activity", "setting": "[11]", "result": "Dose-dependent effect"}, {"measurement": "Activity", "setting": "[12]", "result": 2.07, "unit": "%"}, {"measurement": "fold change (FC)", "setting": "[13]", "result": 1.5}, {"measurement": "Activity", "setting": "[14]", "result": "Active"}, {"measurement": "Activity", "setting": "[15]", "result": "0.32 /millimeter"}, {"measurement": "Activity", "setting": "[16]", "result": "0.3 /millimeter"}, {"measurement": "inhibition", "setting": "[17]", "result": "Active"}, {"measurement": "fold change (FC)", "setting": "[18]", "result": 1.5}, {"measurement": "Activity", "setting": "[19]", "result": "Non-toxic"}, {"measurement": "inhibition", "setting": "[20]", "result": "Active"}, {"measurement": "Activity", "setting": "[21]", "result": "Active"}, {"measurement": "inhibition", "setting": "[22]", "result": "Active"}, {"measurement": "Activity", "setting": "[23]", "result": 2.85, "unit": "%"}, {"measurement": "Activity", "setting": "[24]", "result": "Dose-dependent effect"}, {"measurement": "Activity", "setting": "[25]", "result": 0.72, "unit": "mm"}, {"measurement": "Activity", "setting": "[26]", "result": 0.276, "unit": "micrometer/day"}, {"measurement": "Activity", "setting": "[27]", "result": "Active"}, {"measurement": "Activity", "setting": "[28]", "result": "Active"}, {"measurement": "Activity", "setting": "[29]", "result": "Active"}, {"measurement": "Activity", "setting": "[30]", "result": "Active"}, {"measurement": "inhibition", "setting": "[31]", "result": "Active"}, {"measurement": "Activity", "setting": "[32]", "result": "Active"}, {"measurement": "Activity", "setting": "[33]", "result": 0.291, "unit": "micrometer/day"}]}]}
